Patent US20250186562A1, “TARGET SUBSTRATE PROTEIN DEGRADATION PLATFORM” (The Regents of the University of California, priority 2022, published 2025)
Non-standard residues stand in square brackets, D forms with d. Residues, ends and D or L forms follow the SMILES beside them. Tyr(3-NO2) = N[C@@H](Cc1ccc(O)c([N+](=O)[O-])c1)C(=O)O; dPhe(4-guanidino) = N=C(N)Nc1ccc(C[C@@H](N)C(=O)O)cc1; Phe(4-guanidino) = N=C(N)Nc1ccc(C[C@H](N)C(=O)O)cc1; Tyr(3-F) = N[C@@H](Cc1ccc(O)c(F)c1)C(=O)O; Arg(Me2a) = CN(C)C(=N)NCCC[C@H](N)C(=O)O; 4Pal = N[C@@H](Cc1ccncc1)C(=O)O

Experiments:
GST-Ubr-box of Ubr1 = GST-Ubr-box of Ubr1 (Homo sapiens (Human), UniProt Q8IWV7); experiment: Competition fluorescence polarization (FP) assay, GST-Ubr-box of Ubr1; format: binding; conditions: for Ki: [GST-UBR1]=2 μM, tracer 9 nM, read-out: UBR1 Affinity Ki FP
GST-Ubr-box of Ubr1, sequence (Q8IWV7 other isoform, or with tags, fused parts or gaps): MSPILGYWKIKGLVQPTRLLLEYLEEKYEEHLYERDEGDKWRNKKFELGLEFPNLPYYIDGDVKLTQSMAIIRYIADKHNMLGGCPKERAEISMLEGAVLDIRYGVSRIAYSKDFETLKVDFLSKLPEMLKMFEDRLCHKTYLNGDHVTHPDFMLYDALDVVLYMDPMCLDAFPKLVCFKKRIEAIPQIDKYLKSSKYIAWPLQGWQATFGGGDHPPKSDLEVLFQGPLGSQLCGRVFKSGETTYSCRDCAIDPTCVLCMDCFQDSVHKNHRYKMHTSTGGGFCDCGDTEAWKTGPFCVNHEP
Excerpt: (§1) Fluorescence Polarization (FP) assays were used to determine binding affinity of the peptidomimetic compounds for the Ubr box (FIGS. 4A-B). FIG. 1A depicts the mechanism of action of peptidomimetic compounds that include a linker. […] Binding affinities as determined by Structure Activity Relationship Studies (SARs) of additional peptidomimetic compounds to GST-Ubr-box of Ubr 1 and Ubr2 are shown in Table 1.
(§2) The FP assay uses a tetrapeptide with a sequence arginine-isoleucine-phenylalanine-serine (RIFS) with fluorescein attached to the C-terminus as tracer that was previously shown to bind to the Ubr-boxes of Ubr1 and Ubr2 with similar binding affinity. Assays were developed in 384-well plates, which were read on a Clariostar Reader. Signal-to-background ratio (S/B) was optimized by varying concentrations of GST-Ubr-box and tracer concentrations. GST-fusion proteins were used due to its larger size than Ubr-box alone to increase the FP effect. […] The optimized condition includes receptor concentration [GST-UBR1]=2 μM, tracer concentration [tracer]=9 nM, and the highest concentration of unlabeled peptidomimetic compound competitors at 200 μM with 3× serial dilutions.
(§3) Preliminary ITC measurements confirmed the FP measurements (FIG. 4C).

GST-Ubr-box of Ubr2 = GST-Ubr-box of Ubr2 (Homo sapiens (Human), UniProt Q8IWV8); experiment: Competition fluorescence polarization (FP) assay, GST-Ubr-box of Ubr2; format: binding; conditions: read-out: UBR2 Affinity Ki FP
GST-Ubr-box of Ubr2, sequence (Q8IWV8 other isoform, or with tags, fused parts or gaps): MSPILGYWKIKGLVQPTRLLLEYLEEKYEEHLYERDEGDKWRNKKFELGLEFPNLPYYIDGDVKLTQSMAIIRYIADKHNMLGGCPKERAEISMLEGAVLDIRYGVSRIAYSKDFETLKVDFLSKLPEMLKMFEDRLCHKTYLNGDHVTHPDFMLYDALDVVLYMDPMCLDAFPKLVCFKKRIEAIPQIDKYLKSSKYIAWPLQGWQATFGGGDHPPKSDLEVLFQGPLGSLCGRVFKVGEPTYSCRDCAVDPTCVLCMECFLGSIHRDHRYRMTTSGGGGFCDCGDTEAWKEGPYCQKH
Excerpt: as §1, §2, §3

ERRα protein = ERRα protein (Homo sapiens (Human), UniProt P11474); experiment: ERRα protein level in Hela cells by Western blot; format: cell-based; conditions: Hela cells treated overnight at 100 nM, 33.3 nM, and 11.1 nM; Western blot of whole cell lysates
ERRα protein, sequence (P11474 whole entry): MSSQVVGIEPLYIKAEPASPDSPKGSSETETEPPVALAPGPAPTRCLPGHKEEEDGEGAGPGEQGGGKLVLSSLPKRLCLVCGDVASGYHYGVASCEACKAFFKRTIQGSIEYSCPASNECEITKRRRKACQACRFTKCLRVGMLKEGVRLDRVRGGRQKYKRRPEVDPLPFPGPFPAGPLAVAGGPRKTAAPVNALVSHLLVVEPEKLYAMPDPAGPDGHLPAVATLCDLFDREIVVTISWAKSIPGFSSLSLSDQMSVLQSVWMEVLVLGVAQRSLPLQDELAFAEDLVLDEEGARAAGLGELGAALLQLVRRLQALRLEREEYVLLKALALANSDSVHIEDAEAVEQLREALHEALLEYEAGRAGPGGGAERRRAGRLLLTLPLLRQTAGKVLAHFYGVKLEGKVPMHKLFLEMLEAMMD
Method: In this experiment, Hela cells were treated overnight at a concentration of 100 nM, 33.3 nM, and 11.1 nM with the above peptidomimetic compound. The ERRα protein was detected by Western blot from whole cell lysates. Glyceraldehyde 3-phosphate dehydrogenase (GAPDH) was blotted as loading control.

[1] = test system: Ubr-mediated GFP degradation (Ubiquitin-R-GFP model Ubr substrate); experiment: R-GFP degradation in cells (fluorescent imaging); format: cell-based; conditions: cells expressing Ubiquitin-R-GFP
Excerpt: The peptidomimetic compound outcompetes the R-GFP model Ubr substrate for E3 binding, therefore preventing GFP degradation. The upper panels show fluorescent imaging of the cells and the lower panel show a bright field of the cells.

Compound | Ki (GST-Ubr-box of Ubr1) [nM] | Ki (GST-Ubr-box of Ubr2) [nM] | displacement of tracer (GST-Ubr-box of Ubr1) | levels of the ERRα protein in cells (ERRα protein) | concentration at which R-GFP degradation in cells is blocked [1] [µM]
CC[C@H](C)[C@H](NC(=O)[C@@H](N)Cc1ccc(N=C(N)N)cc1)C(=O)N[C@@H](Cc1ccccc1)C(N)=O [Compound 2] (H-[Phe(4-guanidino)]-Ile-Phe-NH2) | 1000 to 10000 | < 1000 | – | – | –
COc1ccc(C[C@H](NC(=O)[C@H](N)Cc2ccc(N=C(N)N)cc2)C(=O)N[C@@H](Cc2ccccc2)C(N)=O)cc1 [Compound 16] (H-[dPhe(4-guanidino)]-Tyr(Me)-Phe-NH2) | < 1000 | < 1000 | – | – | –
N=C(NCCC[C@H](N)C(=O)N[C@@H](Cc1ccc(O)c([N+](=O)[O-])c1)C(=O)N[C@@H](Cc1ccccc1)C(N)=O)NCC(F)(F)F [Compound 33] | < 1000 | < 1000 | – | – | –
CNC(=N)N(C)CCC[C@H](N)C(=O)N[C@@H](Cc1ccc(O)c([N+](=O)[O-])c1)C(=O)N[C@@H](Cc1ccccc1)C(N)=O [Compound 12] | 1000 to 10000 | < 1000 | – | – | –
unlabeled tetrapeptide: unlabeled tetrapeptide (RIFS sequence without fluorescein tag) used as competitor [reference compound] | – | – | Effective displacement of tracer | – | –
COc1ccc(C[C@H](NC(=O)[C@@H](N)CCCNC(=N)NCC(F)(F)F)C(=O)N[C@@H](Cc2ccccc2)C(N)=O)cc1 [Compound 14] | < 1000 | < 1000 | – | – | –
NCC(=O)N[C@@H](Cc1ccc(O)c([N+](=O)[O-])c1)C(N)=O [Compound 17] (H-Gly-[Tyr(3-NO2)]-NH2) | > 100000 | > 100000 | – | – | –
CN(C)C(=N)NCCC[C@H](N)C(=O)N[C@@H](Cc1ccc(O)c(F)c1)C(=O)N[C@@H](Cc1ccccc1)C(N)=O [Compound 28] (H-[Arg(Me2a)]-[Tyr(3-F)]-Phe-NH2) | < 1000 | 1000 to 10000 | – | – | –
CNC(=N)N(C)CCC[C@H](N)C(=O)N[C@@H](Cc1ccc(O)c([N+](=O)[O-])c1)C(=O)N[C@@H](Cc1ccccc1)C(N)=O [Compound 11] | 10000 to 100000 | 1000 to 10000 | – | – | –
CNC(=N)N(C)CCC[C@H](N)C(=O)N[C@@H](Cc1ccc(O)c(C)c1)C(=O)N[C@@H](Cc1ccccc1)C(N)=O [Compound 7] | 10000 to 100000 | 10000 to 100000 | – | – | –
COc1ccc(C[C@H](NC(=O)[C@@H](N)CCCNC(=N)N(C)C)C(=O)N[C@@H](Cc2ccccc2)C(N)=O)cc1 [Compound 15] (H-[Arg(Me2a)]-Tyr(Me)-Phe-NH2) | < 1000 | < 1000 | – | – | –
N=C(NCCC[C@H](N)C(=O)N[C@@H](Cc1ccc(O)c(Cl)c1)C(=O)N[C@@H](Cc1ccccc1)C(N)=O)NCC(F)(F)F [Compound 20] | < 1000 | < 1000 | – | – | –
CC[C@H](C)[C@H](NC(=O)[C@@H](N)CCC/N=C(\N)N(C)C)C(=O)N[C@@H](Cc1ccccc1)C(N)=O [Compound 32] (H-[Arg(Me2a)]-Ile-Phe-NH2) | 1000 to 10000 | 1000 to 10000 | – | – | –
COc1cc(/C=C2\SC(=O)N(Cc3cn(CCCNC(=O)[C@H](Cc4ccccc4)NC(=O)[C@H](Cc4ccc(O)c([N+](=O)[O-])c4)NC(=O)[C@@H](N)CCCNC(=N)NCC(F)(F)F)nn3)C2=O)ccc1Oc1ccc(C#N)cc1C(F)(F)F [above peptidomimetic compound] | – | – | – | reduction of levels of the ERRα protein | –
CN(C)C(=N)NCCC[C@H](N)C(=O)N[C@@H](Cc1cccs1)C(=O)N[C@@H](Cc1ccccc1)C(N)=O [Compound 30] | < 1000 | 1000 to 10000 | – | – | –
CC[C@H](C)[C@H](NC(=O)[C@@H](N)CCCNC(=N)NCC(F)(F)F)C(=O)N[C@@H](Cc1ccccc1)C(N)=O [Compound 4] | < 1000 | < 1000 | – | – | > 1
CC[C@H](C)[C@H](NC(=O)[C@@H](N)Cc1nn[nH]n1)C(=O)N[C@@H](Cc1ccccc1)C(N)=O [Compound 8] | > 100000 | > 100000 | – | – | –
CC[C@H](C)[C@H](NC(=O)[C@@H](N)Cc1ccncc1)C(=O)N[C@@H](Cc1ccccc1)C(N)=O [Compound 23] (H-[4Pal]-Ile-Phe-NH2) | > 100000 | > 100000 | – | – | –
